Test system: susceptible S. aureus and E. faecium strains
Assay: Post-antibiotic effect (PAE) and post-antibiotic sub-MIC effect (PA-SME)
Assay type: cell-based
Settings: following brief exposure; result in words
Description: Post-antibiotic and post-antibiotic sub-MIC effect: Measurements of PAE and PA-SME durations were performed according to the methods described by Odenholt-Tornqvist and co-workers. […] A flask containing the unexposed bacterial strain was left as untreated control. Post-exposure, 100 μL of bacterial culture was diluted in 900 μL of sterile CaMHB; 100 μL of this diluted sample was immediately diluted further in 19.9 mL of sterile CaMHB (1:2,000 final dilution). […] Flasks were incubated at 37° C. in a shaker incubator (110 rpm). Samples (100 μL from each flask per time point) were collected at 0, 1, 3, 6, and 24 h from each flask and were serially diluted. From each dilution, 100 μL and 10 μL from each dilution were plated in duplicate on TSA plates. Plates were incubated overnight at 35° C. to determine the bacterial counts (limit of detection=20 CFU/plate or 2×10^2 CFU/mL). These counts were plotted against time with linear interpolation between time points to obtain the growth-kinetic curves. PAE and PA-SME were determined from these curves using the formulae: […]
where T is the time required for bacteria previously exposed to antibiotic to multiply 1 log10 above counts immediately following dilution, and C is the corresponding time required for untreated culture to do the same; and […]

## CSC1O[C@H]([C@H](NC(=O)[C@H]2NC[C@@H]3C[C@H](CC(C)C)CCO[C@H]32)[C@H](C)Cl)C(O)[C@@H](O)[C@H]1O (stereo partly shown) [FSA-513018b]
  post-antibiotic effect on bacterial growth: prolonged effects on bacterial growth
